According to patent US12077503B2, “Substituted cyclic amides and their use as herbicides” (FMC CORPORATION, priority 2015, dated 2024):

What was measured:
Assay type in all cases: in vivo
[1] = system: barnyardgrass (Echinochloa crus-galli); experiment: Test G Pre-Emergence Protocol; conditions: Echinochloa crus-galli, pre-emergence, 312 h, evaluated after 13 days
Procedure, shortened: (§1)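 Glasshouse pre-emergence test: soil-sown seeds, sprayed after 1 d at 15.625, 62.5 or 250 g/ha. Conditions 24/16° C day/night, 14 h light, 65% humidity, watering twice daily. Rating 13 d post-spray (100 = total damage).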

[2] = system: velvetleaf (Abutilon theophrasti); experiment: Test G Pre-Emergence Protocol; conditions: Abutilon theophrasti, pre-emergence, 312 h, evaluated after 13 days
Procedure, shortened: as §1

[3] = system: ivy-leaved morning glory (Ipomoea hederacea); experiment: Test G Pre-Emergence Protocol; conditions: Ipomoea, pre-emergence, 312 h, evaluated after 13 days
Procedure, shortened: as §1

[4] = system: giant foxtail (Setaria faberi); experiment: Test G Pre-Emergence Protocol; conditions: Setaria faberi, pre-emergence, 312 h, evaluated after 13 days
Procedure, shortened: as §1

corn (Zea mays) [5] = experiment: Test G Pre-Emergence Protocol; conditions: Zea mays, pre-emergence, 312 h, evaluated after 13 days
Procedure, shortened: as §1

[6] = system: redroot pigweed (Amaranthus retroflexus); experiment: Test G Pre-Emergence Protocol; conditions: Amaranthus retroflexus, pre-emergence, 312 h, evaluated after 13 days
Procedure, shortened: as §1

[7] = system: barnyardgrass (Echinochloa crus-galli); experiment: Test G Post-Emergence Protocol; conditions: Echinochloa crus-galli, post-emergence, 312 h
Procedure, shortened: (§2)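 Post-emergence herbicidal damage, scored visually 0–100 at 13 days. Application at 15.625, 62.5 or 250 g/ha onto 8-day-old plants grown under glasshouse control.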

[8] = system: velvetleaf (Abutilon theophrasti); experiment: Test G Post-Emergence Protocol; conditions: Abutilon theophrasti, post-emergence, 312 h
Procedure, shortened: as §2

[9] = system: ivy-leaved morning glory (Ipomoea hederacea); experiment: Test G Post-Emergence Protocol; conditions: Ipomoea, post-emergence, 312 h
Procedure, shortened: as §2

[10] = system: giant foxtail (Setaria faberi); experiment: Test G Post-Emergence Protocol; conditions: Setaria faberi, post-emergence, 312 h
Procedure, shortened: as §2

corn (Zea mays) [11] = experiment: Test G Post-Emergence Protocol; conditions: Zea mays, post-emergence, 312 h
Procedure, shortened: as §2

[12] = system: redroot pigweed (Amaranthus retroflexus); experiment: Test G Post-Emergence Protocol; conditions: Amaranthus retroflexus, post-emergence, 312 h
Procedure, shortened: as §2

## CN1C[C@@H](c2ccc(C(F)(F)F)cc2)[C@H](C(=O)Nc2ccncc2Cl)C1=O (racemic) [Compound 1608]
[1]; 15.625 g ai/ha, read-out: Barnyard grass damage rating (100=total damage to plant; 0=no damage to plant)
  pest or weed control at 15.625 g/ha: 0%
[1]; 62.5 g ai/ha, 100=total damage to plant, 0=no damage to plant, read-out: plant damage rating, Barnyardgrass
  pest or weed control at 62.5 g/ha: 0%
[1]; 250 g ai/ha, read-out: Barnyardgrass damage rating (100=total damage to plant; 0=no damage to plant)
  pest or weed control at 250 g/ha: 0%
[2]; 15.625 g ai/ha, read-out: Velvetleaf damage rating (100=total damage to plant; 0=no damage to plant)
  pest or weed control at 15.625 g/ha: 0%
[2]; 62.5 g ai/ha, 100=total damage to plant, 0=no damage to plant, read-out: plant damage rating, Velvetleaf
  pest or weed control at 62.5 g/ha: 0%
[2]; 250 g ai/ha, read-out: Velvetleaf damage rating (100=total damage to plant; 0=no damage to plant)
  pest or weed control at 250 g/ha: 0%
[3]; 15.625 g ai/ha, read-out: Morning-glory, Ivy-leaved damage rating (100=total damage to plant; 0=no damage to plant)
  pest or weed control at 15.625 g/ha: 0%
[3]; 62.5 g ai/ha, 100=total damage to plant, 0=no damage to plant, read-out: plant damage rating, Morningglory, Ivy-leaved
  pest or weed control at 62.5 g/ha: 0%
[3]; 250 g ai/ha, read-out: Morningglory, Ivy-leaved damage rating (100=total damage to plant; 0=no damage to plant)
  pest or weed control at 250 g/ha: 0%
[4]; 15.625 g ai/ha, read-out: Foxtail, Giant damage rating (100=total damage to plant; 0=no damage to plant)
  pest or weed control at 15.625 g/ha: 0%
[4]; 62.5 g ai/ha, 100=total damage to plant, 0=no damage to plant, read-out: plant damage rating, Foxtail, Giant
  pest or weed control at 62.5 g/ha: 0%
[4]; 250 g ai/ha, read-out: Foxtail, Giant damage rating (100=total damage to plant; 0=no damage to plant)
  pest or weed control at 250 g/ha: 0%
Corn (Zea mays) [5]; 15.625 g ai/ha, read-out: Corn damage rating (100=total damage to plant; 0=no damage to plant)
  plant injury at 15.625 g/ha: 0%
Corn (Zea mays) [5]; 62.5 g ai/ha, 100=total damage to plant, 0=no damage to plant, read-out: plant damage rating, Corn
  plant injury at 62.5 g/ha: 0%
Corn (Zea mays) [5]; 250 g ai/ha, read-out: Corn damage rating (100=total damage to plant; 0=no damage to plant)
  plant injury at 250 g/ha: 0%
[6]; 15.625 g ai/ha, read-out: Pigweed, Redroot damage rating (100=total damage to plant; 0=no damage to plant)
  pest or weed control at 15.625 g/ha: 0%
[6]; 62.5 g ai/ha, 100=total damage to plant, 0=no damage to plant, read-out: plant damage rating, Pigweed, Redroot
  pest or weed control at 62.5 g/ha: 10%
[6]; 250 g ai/ha, read-out: Pigweed, Redroot damage rating (100=total damage to plant; 0=no damage to plant)
  pest or weed control at 250 g/ha: 20%
[7]; 15.625 g ai/ha, evaluated after 13 days (100=total damage to plant; 0=no damage to plant), read-out: Barnyardgrass damage rating
  pest or weed control at 15.625 g/ha: 0%
[7]; 62.5 g ai/ha, evaluated after 13 days, read-out: Barnyardgrass damage rating (100=total damage to plant; 0=no damage to plant)
  pest or weed control at 62.5 g/ha: 10%
[7]; 250 g ai/ha, evaluated after 13 days, read-out: damage to plant, Barnyardgrass (100=total damage to plant; 0=no damage to plant)
  pest or weed control at 250 g/ha: 10%
[8]; 15.625 g ai/ha, evaluated after 13 days (100=total damage to plant; 0=no damage to plant), read-out: Velvetleaf damage rating
  pest or weed control at 15.625 g/ha: 0%
[8]; 62.5 g ai/ha, evaluated after 13 days, read-out: Velvetleaf damage rating (100=total damage to plant; 0=no damage to plant)
  pest or weed control at 62.5 g/ha: 0%
[8]; 250 g ai/ha, evaluated after 13 days, read-out: damage to plant, Velvetleaf (100=total damage to plant; 0=no damage to plant)
  pest or weed control at 250 g/ha: 0%
[9]; 15.625 g ai/ha, evaluated after 13 days (100=total damage to plant; 0=no damage to plant), read-out: Morningglory, Ivy-leaved damage rating
  pest or weed control at 15.625 g/ha: 40%
[9]; 62.5 g ai/ha, evaluated after 13 days, read-out: Morningglory, Ivy-leaved damage rating (100=total damage to plant; 0=no damage to plant)
  pest or weed control at 62.5 g/ha: 30%
[9]; 250 g ai/ha, evaluated after 13 days, read-out: damage to plant, Morningglory, Ivy-leaved (100=total damage to plant; 0=no damage to plant)
  pest or weed control at 250 g/ha: 40%
[10]; 15.625 g ai/ha, evaluated after 13 days (100=total damage to plant; 0=no damage to plant), read-out: Foxtail, Giant damage rating
  pest or weed control at 15.625 g/ha: 0%
[10]; 62.5 g ai/ha, evaluated after 13 days, read-out: Foxtail, Giant damage rating (100=total damage to plant; 0=no damage to plant)
  pest or weed control at 62.5 g/ha: 10%
[10]; 250 g ai/ha, evaluated after 13 days, read-out: damage to plant, Foxtail, Giant (100=total damage to plant; 0=no damage to plant)
  pest or weed control at 250 g/ha: 60%
Corn (Zea mays) [11]; 15.625 g ai/ha, evaluated after 13 days (100=total damage to plant; 0=no damage to plant), read-out: Corn damage rating
  plant injury at 15.625 g/ha: 0%
Corn (Zea mays) [11]; 62.5 g ai/ha, evaluated after 13 days, read-out: Corn damage rating (100=total damage to plant; 0=no damage to plant)
  plant injury at 62.5 g/ha: 10%
Corn (Zea mays) [11]; 250 g ai/ha, evaluated after 13 days, read-out: damage to plant, Corn (100=total damage to plant; 0=no damage to plant)
  plant injury at 250 g/ha: 20%
[12]; 15.625 g ai/ha, evaluated after 13 days (100=total damage to plant; 0=no damage to plant), read-out: Pigweed, Redroot damage rating
  pest or weed control at 15.625 g/ha: 0%
[12]; 62.5 g ai/ha, evaluated after 13 days, read-out: Pigweed, Redroot damage rating (100=total damage to plant; 0=no damage to plant)
  pest or weed control at 62.5 g/ha: 10%
[12]; 250 g ai/ha, evaluated after 13 days, read-out: damage to plant, Pigweed, Redroot (100=total damage to plant; 0=no damage to plant)
  pest or weed control at 250 g/ha: 20%
